The text below walks through data of patent US10087193B2, “Crystalline forms of dolutegravir sodium” (Mylan Laboratories Ltd., priority 2014, dated 2018).

The nature of data set [1]: Physical and chemical stability on storage (PXRD, Karl Fischer water content, HPLC purity). The settings on record: for change in PXRD pattern on storage / degradation on storage / increase in moisture content on storage / physical and chemical stability (conclusion): 6 months at 40° C./75% RH and at 25° C./60% RH. The protocol:
The physical and chemical stability of dolutegravir sodium Form-M2 and Form-M4 was determined by storing the samples at 40° C./75% relative humidity (RH) and at 25° C./60% RH for 6 months. At different time points during storage, the crystal structure of the material was analyzed by PXRD, the water content by Karl Fischer, and by HPLC for final purity.

A short description of data set [2]: Thermodynamic stability of the crystalline form. The format is physicochemical.
The mark [3] stands for this setting: storage at 25° C./60% RH, 1 month.
[4] abbreviates: storage at 25° C./60% RH, 3 months.
The mark [5] stands for this setting: storage at 25° C./60% RH, 6 months.
Setting [6] is: storage at 25° C./60% RH, Initial.
The mark [7] stands for this setting: storage at 40° C./75% RH, 1 month.
Where [8] appears, read: storage at 40° C./75% RH, 3 months.
The mark [9] stands for this setting: storage at 40° C./75% RH, 6 months.
Where [10] appears, read: storage at 40° C./75% RH, Initial.

With `C[C@@H]1CCO[C@H]2Cn3cc(C(=O)NCc4ccc(F)cc4F)c(=O)c([O-])c3C(=O)N12.[Na+]` [Form-M2, sodium (4R, 12aS)-9-((2,4-difluorobenzyl)carbamoyl)-4-methyl-6,8-dioxo-3,4,6,8, 12, 12a-hexahydro-2H-pyrido[1′,2′:4,5]pyrazino[2,1-b][1,3]oxazin-7-olate], the “change in PXRD pattern on storage” value in data set [1] is on record as “no change in PXRD pattern”. Moreover, the degradation on storage entry in data set [1] is given as “no significant degradation”. The “increase in moisture content on storage” value in data set [1] is given as “no substantial increase in moisture content”. Moreover, the “physical and chemical stability (conclusion)” value in data set [1] was “physically and chemically stable”. In addition, the “HPLC purity (%)” value in data set [1] (setting [3]) was determined as 99.6%; in data set [1] (setting [4]), 99.5%; in data set [1] (setting [5]), 99.5%; in data set [1] (setting [6]), 99.7%; in data set [1] (setting [7]), 99.6%; in data set [1] (setting [8]) it was 99.5%. Also, the “HPLC purity (%)” value in data set [1] (setting [9]) worked out at 99.5%; in data set [1] (setting [10]), 99.7%. Besides, the “PXRD (polymorph found)” value in data set [1] (setting [3]), in data set [1] (setting [4]), in data set [1] (setting [5]), in data set [1] (setting [6]), in data set [1] (setting [7]) and in data set [1] (setting [8]) was “Form-M2” each time. Besides, the “PXRD (polymorph found)” value in data set [1] (setting [9]) and in data set [1] (setting [10]) was “Form-M2” throughout.

For `C[C@@H]1CCO[C@H]2Cn3cc(C(=O)NCc4ccc(F)cc4F)c(=O)c([O-])c3C(=O)N12.[Na+]` [Form-M4, sodium (4R, 12aS)-9-((2,4-difluorobenzyl)carbamoyl)-4-methyl-6,8-dioxo-3,4,6,8, 12, 12a-hexahydro-2H-pyrido[1′,2′:4,5]pyrazino[2,1-b][1,3]oxazin-7-olate], the “change in PXRD pattern on storage” value in data set [1] was “no change in PXRD pattern”. Besides, in data set [1], the degradation on storage result is on record as “no significant degradation”. Also, the “increase in moisture content on storage” value in data set [1] is “no substantial increase in moisture content”. Further, the “physical and chemical stability (conclusion)” value in data set [1] is “physically and chemically stable”. Further, the “HPLC purity (%)” value in data set [1] (setting [3]) is recorded as 99.17%; in data set [1] (setting [4]), 99.10%; in data set [1] (setting [5]) it was 99.0%; in data set [1] (setting [6]) it was 99.24%; in data set [1] (setting [7]), 99.2%; in data set [1] (setting [8]) it was 99.1%. In addition, the “HPLC purity (%)” value is 99.0% in data set [1] (setting [9]) and 99.2% in data set [1] (setting [10]). Moreover, the “PXRD (polymorph found)” value in data set [1] (setting [3]), in data set [1] (setting [4]), in data set [1] (setting [5]), in data set [1] (setting [6]), in data set [1] (setting [7]) and in data set [1] (setting [8]) was “Form-M4” throughout. The “PXRD (polymorph found)” value in data set [1] (setting [9]) and in data set [1] (setting [10]) was “Form-M4” throughout.

Consider `C[C@@H]1CCO[C@H]2Cn3cc(C(=O)NCc4ccc(F)cc4F)c(=O)c([O-])c3C(=O)N12.[Na+]` [Form-M3, sodium (4R, 12aS)-9-((2,4-difluorobenzyl)carbamoyl)-4-methyl-6,8-dioxo-3,4,6,8, 12, 12a-hexahydro-2H-pyrido[1′,2′:4,5]pyrazino[2,1-b][1,3]oxazin-7-olate], for which the thermodynamic stability entry in data set [2] was “only metastable and not thermodynamically stable”.
